Data reported in patent US20260184707A1, “PHARMACEUTICAL COMPOUNDS FOR THE TREATMENT OF COMPLEMENT MEDIATED DISORDERS” (ALEXION PHARMACEUTICALS, INC., priority 2022, published 2026).

Target: T1, Human complement C1s enzyme (Homo sapiens, UniProt P09871)
T1 construct: purified from human serum, Complement Technology, Inc; purchased Complement Technology, Inc; host or cells: human serum (plasma-derived native protein)
T1 sequence (P09871 438-688 limits assumed): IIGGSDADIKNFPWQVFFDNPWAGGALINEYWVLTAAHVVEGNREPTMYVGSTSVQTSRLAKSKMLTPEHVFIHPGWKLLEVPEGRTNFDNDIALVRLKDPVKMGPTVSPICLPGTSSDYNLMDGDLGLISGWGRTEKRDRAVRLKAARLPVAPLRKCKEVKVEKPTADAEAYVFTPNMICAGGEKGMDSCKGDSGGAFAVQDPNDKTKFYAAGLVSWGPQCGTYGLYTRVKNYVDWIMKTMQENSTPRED
T1 sequence (P09871 16-437 partner limits assumed): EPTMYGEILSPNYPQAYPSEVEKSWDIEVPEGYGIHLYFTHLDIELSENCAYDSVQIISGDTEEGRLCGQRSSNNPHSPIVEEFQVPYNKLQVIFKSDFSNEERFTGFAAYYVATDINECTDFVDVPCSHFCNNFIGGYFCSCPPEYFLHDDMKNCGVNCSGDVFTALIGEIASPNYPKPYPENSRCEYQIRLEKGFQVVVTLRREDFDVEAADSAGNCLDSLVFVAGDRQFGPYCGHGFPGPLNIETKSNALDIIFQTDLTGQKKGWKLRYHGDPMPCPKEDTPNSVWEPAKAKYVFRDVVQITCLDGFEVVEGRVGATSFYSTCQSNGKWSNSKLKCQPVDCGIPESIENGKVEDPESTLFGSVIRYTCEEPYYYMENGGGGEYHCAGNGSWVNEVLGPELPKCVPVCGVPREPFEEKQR
Experiment: Human C1s enzyme assay
Type: biochemical
Details: human complement C1s enzyme 1.16 nM, substrate Z-L-Lys-SBzl, A405; read-out: IC50 (Stars)
Procedure: The […] values of the compounds of Table 1 were determined with the human C1s enzyme assay described below. Other standard complement assays are also available.
Human complement C1s enzyme (purified from human serum, Complement Technology, Inc.) at 1.16 nM final concentration was incubated with test compound at various concentrations for 5 min at room temperature in 50 mM Tris, 1 M NaCl, pH 7.5. A synthetic substrate Z-L-Lys-SBzl and DTNB (Ellman's reagent) were added to final concentrations of 100 μM each. Absorbance at 405 nm (A405) was recorded at 30 second intervals for […] using a microplate spectrophotometer. IC values were calculated by nonlinear regression of complement C1s reaction rates as a function of test compound concentration.
[…]; ND indicates a compound for which the IC50 value is not determined.

Compound	IC50
O=C(Cn1c(-c2ccc(N3CCOCC3)nc2)ncc(NCc2ccc3oc4ccccc4c3c2)c1=O)NCc1cc2cnccc2[nH]1 [Compound 279, N-((1H-pyrrolo[3,2-c]pyridin-2-yl)methyl)-2-(5-((dibenzo [b,d]furan-2-ylmethyl)amino)-2-(6-morpholinopyridin-3-yl)-6-oxopyrimidin-1(6H)-yl)-acetamide]	< 100 nM
O=C(Cn1c(-c2ccccc2)ncc(NC(=O)c2ccc(Oc3ccc(Br)cc3)cc2)c1=O)NCc1cc2cnccc2[nH]1 [Compound 51, N-(1-(2-(((1H-pyrrolo[3,2-c]pyridin-2-yl)methyl)amino)-2-oxoethyl)-6-oxo-2-phenyl-1,6-dihydropyrimidin-5-yl)-4-(4-bromophenoxy)benzamide]	< 100 nM
O=C(Cn1c(-c2ccccc2)ncc(NCc2ccc(Oc3ccccc3)cc2)c1=O)NCc1cc2cnccc2[nH]1 [Compound 20, N-((1H-pyrrolo[3,2-c]pyridin-2-yl)methyl)-2-(6-oxo-5-((4-phenoxybenzyl)amino)-2-phenylpyrimidin-1(6H)-yl)-acetamide]	< 100 nM
C[C@H](Nc1cnc(-c2ccccc2)n(CC(=O)NCc2cc3cnccc3[nH]2)c1=O)c1ccc(Oc2ccccc2)cc1 [Compound 62, (S)-N-((1H-pyrrolo[3,2-c]pyr-idin-2-yl)methyl)-2-(6-oxo-5-((1-(4-phenoxyphenyl)ethyl)-amino)-2-phenylpyrimidin-1(6H)-yl)acetamide]	< 100 nM
O=C(Cn1c(C2CCCC2)ncc(NCc2ccc3oc4ccccc4c3c2)c1=O)NCc1cc2cnccc2[nH]1 [Compound 253, N-((1H-pyrrolo[3,2-c]pyridine-2-yl)methyl)-2-(2-cyclopentyl-5-((dibenzo[b,d]furan-2-ylmethyl)amino)-6-oxopyrimidin-1(6H)-yl)acetamide]	< 100 nM
Cc1ccc(-c2ncc(N[C@H](C)c3ccc4oc5ccccc5c4c3)c(=O)n2CC(=O)NCc2cc3cnccc3[nH]2)c(F)c1 [Compound 436, (R)-N-((1H-pyrrolo[3,2-c]pyridin-2-yl)methyl)-2-(5-((1-(dibenzo[b,d]furan-2-yl)ethyl)-amino)-2-(2-fluoro-4-methyl-phenyl)-6-oxopyrimidin-1(6H)-yl)acetamide]	< 100 nM
Cc1nc(-c2ccccc2)nc(OCC(=O)NCc2cc3cnccc3[nH]2)c1NCc1ccc2oc3ccccc3c2c1 [Compound 269, N-((1H-pyrrolo[3,2-c]pyridine-2-yl)methyl)-2-((5-((dibenzo[b,d]furan-2-ylmethyl)amino)-6-methyl-2-phenylpyrimidin-4-yl)oxy)acetamide]	> 1000 nM
COc1ccc(CCCNc2cnc(-c3ccccc3)n(CC(=O)NCc3cc4cnccc4[nH]3)c2=O)cc1 [Compound 45, N-((1H-pyrrolo[3,2-c]pyridin-2-yl)methyl)-2-(5-((3-(4-methoxyphenyl)propyl)amino)-6-oxo-2-phenylpyrimidin-1(6H)-yl)acetamide]	< 100 nM
O=C(Cn1c(N2CCCCC2)ncc(NC(CF)c2ccc3oc4ccccc4c3c2)c1=O)NCc1cc2cnccc2[nH]1 (single isomer, unassigned) [Compound 441]	< 100 nM
O=C(Cn1c(-c2ccc(OC3CS(=O)(=O)C3)cc2)ncc(NCCCc2ccccc2)c1=O)NCc1cc2cnccc2[nH]1 [Compound 124, N-((1H-pyrrolo[3,2-c]pyridine-2-yl)methyl)-2-(2-(4-((1,1-dioxidothietan-3-yl)oxy)phenyl)-6-oxo-5-((3-phenylpropyl)amino)pyrimidin-1(6H)-yl)acetamide]	< 100 nM
C[C@@H](Nc1cnc(N2CCCCC2)n(CC(=O)NCc2cc3cnccc3[nH]2)c1=O)c1coc(-c2ccccc2)n1 [Compound 460, (R)-N-((1H-pyrrolo[3,2-c]pyridin-2-yl)methyl)-2-(6-oxo-5-((1-(2-phenyloxazol-4-yl)-ethyl)amino)-2-(piperidin-1-yl)pyrimidin-1(6H)-yl)acet-amide]	100 to 1000 nM
C[C@@H](Nc1cnc(N2CC3CCC2C3)n(CC(=O)NCc2cc3cnccc3[nH]2)c1=O)c1ccc2oc3ccccc3c2c1 (stereo partly drawn) [Compound 383, N-((1H-pyrrolo[3,2-c]pyridine-2-yl)methyl)-2-(2-(2-azabicyclo[2.2.1]heptan-2-yl)-5-(((R)-1-(dibenzo[b,d]furan-2-yl)ethyl)amino)-6-oxopyrimidin-1(6H)-yl)acetamide]	> 1000 nM
O=C(Cn1c(-c2ccccc2F)ncc(N[C@H](CF)c2ccc3oc4ccccc4c3c2)c1=O)NCc1cc2cnccc2[nH]1 (single isomer, unassigned) [Compound 375, (S*)—N-((1H-pyrrolo[3,2-c]pyridine-2-yl)methyl)-2-(5-((1-(dibenzo[b,d]furan-2-yl)-2-fluoroethyl)amino)-2-(2-fluorophenyl)-6-oxopyrimidin-1(6H)-yl)acetamide]	< 100 nM
C[C@@H](Nc1ncc(-c2cscn2)n(CC(=O)NCc2cc3cnccc3[nH]2)c1=O)c1ccc2oc3ccccc3c2c1 [Compound 429, (R)-N-((1H-pyrrolo[3,2-c]pyridin-2-yl)methyl)-2-(3-((1-(dibenzo[b,d]furan-2-yl)ethyl)-amino)-2-oxo-6-(thiazol-4-yl)-pyrazin-1(2H)-yl)acetamide]	< 100 nM
C[C@@H](Nc1cnc(N2CCS(=O)(=O)CC2)n(CC(=O)NCc2cc3cnccc3[nH]2)c1=O)c1ccc2oc3ccccc3c2c1 [Compound 385, (R)-N-((1H-pyrrolo[3,2-c]pyridin-2-yl)methyl)-2-(5-((1-(dibenzo[b,d]furan-2-yl)ethyl)-amino)-2-(1,1-dioxidothio-morpholino)-6-oxopyrimidin-1(6H)-yl)acetamide]	> 1000 nM
C[C@@H](Nc1cnc(N2CCCCC2)n(CC(=O)NCc2cc3cnccc3[nH]2)c1=O)c1nc(-c2ccccc2)co1 [Compound 487, (R)—N-((1H-Pyrrolo[3,2-c]pyridine-2-yl)methyl)-2-(6-oxo-5-((1-(4-phenyloxazol-2-yl)ethyl)amino)-2-(piperidin-1-yl)pyrimidin-1(6H)-yl) acetamide]	< 100 nM
CCOP(=O)(COc1ccc(-c2ncc(NCCCc3ccccc3)c(=O)n2CC(=O)NCc2cc3cnccc3[nH]2)cc1)OCC [Compound 89, diethyl ((4-(1-(2-(((1H-pyrrolo[3,2-c]pyridine-2-yl)methyl)amino)-2-oxoethyl)-6-oxo-5-((3-phenylpropyl)amino)-1,6-dihydropyrimidin-2-yl)phenoxy)methyl)phosphonate]	< 100 nM
O=C(Cn1c(-c2ccccc2)ncc(NCCCc2ccccc2)c1=O)N[C@H](CO)c1cc2cnccc2[nH]1 [Compound 15, (S)-N-(2-hydroxy-1-(1H-pyr-rolo[3,2-c]pyridin-2-yl)ethyl)-2-(6-oxo-2-phenyl-5-((3-phen-ylpropyl)amino)pyrimidin-1(6H)-yl)acetamide]	> 1000 nM
O=C(Cn1c(-c2ccc(S(F)(F)(F)(F)F)cc2)ncc(NCc2ccc3c(c2)-c2ccccc2C3(F)F)c1=O)NCc1cc2cnccc2[nH]1 [Compound 255, N-((1H-pyrrolo[3,2-c]pyridine-2-yl)methyl)-2-(5-(((9,9-difluoro-9H-fluoren-3-yl)methyl)amino)-6-oxo-2-(4-(pentafluoro-λ^6-sulfaneyl)phenyl)pyrimidin-1(6H)-yl)acetamide]	< 100 nM
O=C(Cn1c(N2CCCCC2)cnc(NCc2cc(-c3ccccc3F)on2)c1=O)NCc1cc2cnccc2[nH]1 [Compound 479, N-((1H-pyrrolo[3,2-c]pyridin-2-yl)methyl)-2-(3-(((5-(2-fluorophenyl)isoxazol-3-yl)-methyl)amino)-2-oxo-6-(piper-idin-1-yl)pyrazin-1(2H)-yl)-acetamide]	< 100 nM
O=C(Cn1c(-c2ccccc2)ncc(NCc2ccc3c(c2)C(F)(F)c2ccccc2-3)c1=O)NCc1cc2cnccc2[nH]1 [Compound 112, N-((1H-pyrrolo[3,2-c]pyridin-2-yl)methyl)-2-(5-(((9,9-difluoro-9H-fluoren-2-yl)meth-yl)amino)-6-oxo-2-phenyl-pyrimidin-1(6H)-yl)acetamide]	< 100 nM
C[C@@H](Nc1cnc(N2CCCCC2)n(CC(=O)NCc2cc3cnccc3[nH]2)c1=O)c1cnc(-c2ccccc2)s1 [Compound 462, (R)-N-((1H-pyrrolo[3,2-c]pyridin-2-yl)methyl)-2-(6-oxo-5-((1-(2-phenylthiazol-5-yl)ethyl)amino)-2-(piperidin-1-yl)pyrimidin-1(6H)-yl)acet-amide]	< 100 nM
O=C(Cn1c(-c2ccccc2)ncc(NC(=O)c2ccc(-c3cnc[nH]3)cc2)c1=O)NCc1cc2cnccc2[nH]1 [Compound 174, N-(1-(2-(((1H-pyrrolo[3,2-c]pyridine-2-yl)methyl)amino)-2-oxoethyl)-6-oxo-2-phenyl-1,6-dihydropyrimidin-5-yl)-4-(1H-imidazol-5-yl)benzamide]	< 100 nM
